Source: US8927534B2, “Compounds for the inhibition of integrins and use thereof” (Shire Orphan Therapies GmbH, priority 2006, dated 2015)

Key:
[1] = target: integrin alpha5beta1 extracellular domain Fc-fusion (Homo sapiens (Human), UniProt P05556+P08648); assay: alpha5beta1-Fibronectin binding assay (competitive ELISA); conditions: inhibition of integrin binding to coated fibronectin
Protocol: (§1) The optimal concentrations of integrin and ligand were selected from ELISA binding studies with variable concentrations of both to obtain optimal signal noise ratio for further studies. IC50 studies were performed with fixed concentration of ligand and integrin and a serial dilution of inhibitor. The plates were measured with SpectraMax Plus reader (Molecular Devices). The resulting inhibition curves were analyzed using SoftMaxPro 4.0 software, the turning point describes the IC50 value.
(§2) Fibronectin was purchased from Sigma and fibrinogen from Calbiochem. (EMD Biosciences, Darmstadt, Germany). The integrin alpha5beta1 extracellular domain Fc-fusion was expressed and purified as described (Coe, 2001, J. Biol. Chem., 276, 35854). Integrin alphaIIbbeta3 was purchased form Kordia (Kordia Life Science, Leiden, Netherlands)
Fibronectin was diluted with coating buffer (15 mM Na2CO3, 35 mM NaHCO3, pH 9.6) and coated with 100 μL/well to Nunc-Immuno maxisorp plates (Nalge Nunc Europe Ltd) over night at 4° C. After discarding the coating solution plates were washed 3 times with buffer 1 (25 mM Tris, pH 7.6, 150 mM NaCl, 1 mM MnCl2, 1 mg/ml BSA) and blocked with 100 μL blocking buffer (3% BSA in PBS 0.1% Tween20) for 1 hour at room temperature. After washing the blocked plates (3 times) with buffer 1, integrin (50 μL) and either inhibitor (serial dilution in buffer 1) or buffer 1 (50 μL) were added to the wells and incubated for one hour at RT. Plates were then washed (3 times) with buffer 1 and incubated with 100 μL of anti-human-Fc-HRP antibody conjugate (Sigma-Aldrich, Taufkirchen, Germany) in buffer 1 for 1 hour at RT. After additional washing steps (3 times) with buffer 150 μL of HRP substrate solution TMB (Seramun, Germany) were added to the wells. Color development was stopped after 3-5 minutes with 50 μL 1 M H2SO4. The developed color was measured at 450 nm and analyzed as described above.

[2] = target: Integrin alphaIIbbeta3 (Homo sapiens (Human), UniProt P05106+P08514); assay: alphaIIbbeta3-Fibrinogen binding assay (competitive ELISA); conditions: inhibition of integrin binding to coated fibrinogen; read-out: IC50 alphabIIbbeta3
Protocol: as §1, §2
Fibrinogen was diluted with coating buffer (15 mM Na2CO3, 35 mM NaHCO3, pH 9.6) and coated with 100 μL/well to Nunc-Immuno maxisorp plates over night at 4° C. After discarding the coating solution plates were washed 3 times with buffer 1 (25 mM Tris, pH 7.6, 150 mM NaCl, 1 mM MnCl2, 1 mg/ml BSA) and blocked with 100 μL blocking buffer (3% BSA in PBS 0.1% Tween20) for 1 hour at room temperature. After washing the blocked plates (3 times) with buffer 1, integrin alphaIIbbeta3 (50 μL) and either inhibitor (serial dilution in buffer 3, 25 mM Tris, pH 7.6, 150 mM NaCl, 1 mM MnCl2, 1 mg/ml BSA 1 mM MgCl2, 1 mM CaCl2,) or buffer 3 (50 μL) were added to the wells and incubated for one hour at RT. Plates were then washed (3 times) with buffer 3 and incubated with 100 μL of anti-alphaIIbbeta3 antibody (anti CD41b, Pharmingen) in buffer 3 for 1 hour at RT. Plates were washed (3 times) with buffer 3 and incubated for 1 hour with 100 μL secondary antibody (anti-mouse-HRP conjugate, Sigma) in buffer 3. After additional washing steps (3 times) with buffer 350 μL of HRP substrate solution TMB (Seramun) were added to the wells. Color development was stopped after 3-5 minutes with 50 μL 1 M H2SO4. The developed color was measured at 450 nm and analyzed as described above.

[3] = target: alpha5beta1 (Homo sapiens (Human), UniProt P05556+P08648); assay: Cell adhesion assay with HEK293; type: cell-based; conditions: HEK293 cells, fibronectin-coated plates, 1 h at 37° C., 2 mM MgCl2
Protocol: Cryopreservated cells were thawed and grown for 72 h in DMEM medium with 10% FCS, 2 mM glutamine, 100 U/ml penicillin and 100 μg/ml streptomycin before use.
Cells were detached with cell dissociation solution (Sigma) and suspended in growth medium, centrifuged and resuspended in buffer A (150 mM NaCl, 25 mM HEPES, 2 mM EDTA, pH 7.4). Cells were incubated for 30 min at 37° C. in a 5% CO2. Subsequently, cells were washed with pre-warmed buffer B (150 mM NaCl, 25 mM HEPES pH 7.4) and resuspended in buffer B. 96-well Maxisorp-plate were coated with 0.01% poly-L-lysine, 10 μg/ml fibronectin (Chemicon; #F1904) in carbonate buffer or carbonate buffer alone (15 mM Na2CO3, 35 mM NaHCO3, pH 9.6) for 1 h at RT. Plates were washed and blocked with 1% BSA for 30 min at RT. Cells were preincubated with test compound and adjusted DMSO concentrations for 10 min at RT. 7×10^4 cells per well were plated in triplicate and allowed to attach for 1 h at 37° C. in the presence of 2 mM MgCl2. Cells were washed with PBS and adherent cells were fixed with 5% glutaraldehyde for 30 min.
Cells were subsequently washed and stained with 0.1% Crystal Violet for 1 hr at 37° C. Plates were washed and incorporated dye was solubilized with 10% acetic acid. Absorbance was measured at 570 nm using a Spectramax Plus 384 microtiter plate reader and analyzed with SoftMaxPro (Molecular Devices). Minimal binding on BSA was subtracted. IC50 values were determined using XL-FIT.

[4] = system: HUVEC; assay: Migration assay with HUVEC; type: cell-based; conditions: Homo sapiens, transwell coated with chymotryptic fibronectin fragment, 10 ng/ml bFGF chemoattractant, 3 h
Protocol: Migration assays are carried out using modified Boyden chambers consisting of Fluoroblock Transwell membrane filter (8 μm pores) in 24 well companion tissue plates (BD). Three wells per group are used.
The underfaces of the transwell membranes are coated with chymotryptic fibronectin fragment (10 μg/ml; Chemicon) and blocked with 2% BSA for 1 h at room temperature. After rinsing with PBS transwells are placed into companion plates containing 700 μl serumfree medium with indicated compound concentrations and chemoattractant (10 ng/ml bFGF; Promocell).
HUVEC are maintained in standard culture medium (Endothelial Cell Growth Medium; Promocell, containing supplement mix and 2% FCS) in a humified 5% CO2 incubator at 37° C. Cells are grown to 70-90% confluency and are made quiescent in culture medium containing 0.5% FCS, 0.1% BSA, no supplements for 16 h. Medium is removed and serum-free medium (0% FCS; 0.1% BSA, no supplements) is added for 1.5 h. Cells are detached with trypsin and cell suspension is adjusted to 1×10^5/ml. Indicated compound concentrations are added to cells. Cells are preincubated with compounds for 15 min, before seeding of 250 μl of the cell suspensions into the transwells. Cells are allowed to migrate for 3 h in 37° C. incubator with 5% CO2. Then, transwells are transferred to 24 well companion tissue plates containing Calcein AM (4 μM; Molecular Probes) in HBSS and incubated for another 2 h. Plates are read at excitation/emission […] in a fluorescence reader.
Results are expressed as percent of control (cells in serumfree medium without compound and chemoattractant.

Cc1ccnc(NCC2CCN(c3ccc(CC(NC(=O)c4c(C)cc(C)cc4C)C(=O)O)cc3)CC2)c1 (centres unmarked) [Compound 8, 3-(4-(4-((4-methylpyridin-2-ylamino)methyl)piperidin-1-yl)phenyl)-2-(2,4,6-trimethylbenzamido)propanoic acid] gave an IC50 [1] of under 100 nM, an IC50 [2] of over 1000 nM and an IC50 [3] of under 2000 nM. It also gave an IC50 [4] of under 10000 nM.
With Cc1cc(C)c(C(=O)NC(Cc2ccc(N3CC(CNc4ccccn4)C3)cc2)C(=O)O)c(C)c1 (centres unmarked) [Compound 11, 3-(4-(3-((pyridin-2-ylamino)methyl)azetidin-1-yl)phenyl)-2-(2,4,6-trimethylbenzamido)propanoic acid] the IC50 [1] was over 100 nM, the IC50 [2] was over 1000 nM and the IC50 [3] was over 20000 nM.
Cc1cc(C)c(C(=O)NC(Cc2ccc(N3CCC(CNc4nc5ccccc5[nH]4)CC3)cc2)C(=O)O)c(C)c1 (centres unmarked) [Compound 20, 3-(4-(4-((1H-benzo[d]imidazol-2-ylamino)methyl)piperidin-1-yl)phenyl)-2-(2,4,6-trimethylbenzamido)propanoic acid] gave an IC50 [1] of over 100 nM, an IC50 [2] of over 1000 nM and an IC50 [3] of 2000 to 20000 nM.
With Cc1cc(C)c(C(=O)NC(Cc2ccc(N3CCC(c4ccc5c(n4)NCCC5)CC3)cc2)C(=O)O)c(C)c1 (centres unmarked) [Compound 23, 3-(4-(4-(5,6,7,8-tetrahydro-1,8-naphthyridin-2-yl)piperidin-1-yl)phenyl)-2-(2,4,6-trimethylbenzamido)propanoic acid] the IC50 [1] was under 100 nM, the IC50 [2] was over 1000 nM and the IC50 [3] was under 2000 nM. For the same compound, the IC50 [4] was under 10000 nM.
CC1(C(=O)NC(CC2CCN(C(=O)CCc3ccc4c(n3)NCCC4)CC2)C(=O)O)CCCCC1 (centres unmarked) [Compound 29, 2-(1-methylcyclohexanecarboxamido)-3-(1-(3-(5,6,7,8-tetrahydro-1,8-naphthyridin-2-yl)propanoyl)piperidin-4-yl)propanoic acid] was tested, and the IC50 [1] was under 100 nM, the IC50 [2] was over 1000 nM and the IC50 [3] was 2000 to 20000 nM. The IC50 [4] was over 20000 nM.
Cc1ccnc(NCC2CCN(c3ccc(CC(NC(=O)C4(C)CCCCC4)C(=O)O)cc3)CC2)c1 (centres unmarked) [Compound 75, 2-(1-methylcyclohexanecarboxamido)-3-(4-(4-((4-methylpyridin-2-ylamino)methyl)piperidin-1-yl)phenyl)propanoic acid] was tested, and the IC50 [1] was under 100 nM, the IC50 [2] was over 1000 nM and the IC50 [3] was under 2000 nM.
With Cc1ccnc(NCC2CC(=O)N(c3ccc(CC(NC(=O)c4c(C)cc(C)cc4C)C(=O)O)cc3)C2)c1 (centres unmarked) [Compound 114, 3-(4-(4-((4-methylpyridin-2-ylamino)methyl)-2-oxopyrrolidin-1-yl)phenyl)-2-(2,4,6-trimethylbenzamido)propanoic acid] the IC50 [1] was under 100 nM, the IC50 [3] was under 2000 nM and the IC50 [4] was under 10000 nM.
CCc1cc(F)cc(C)c1C(=O)NC(Cc1ccc(N2CCC(CNc3ccccn3)CC2)cc1)C(=O)O (centres unmarked) [Compound 120, 2-(2-ethyl-4-fluoro-6-methylbenzamido)-3-(4-(4-((pyridin-2-ylamino)methyl)piperidin-1-yl)phenyl)propanoic acid] gave an IC50 [1] of under 100 nM, an IC50 [2] of over 1000 nM and an IC50 [3] of under 2000 nM. It also gave an IC50 [4] of under 10000 nM.
With COc1ccnc(NCC2CCN(c3ccc(CC(NC(=O)c4c(C)cc(C)cc4C)C(=O)O)cc3)CC2)c1 (centres unmarked) [Compound 147, 3-(4-(4-((4-methoxypyridin-2-ylamino)methyl)piperidin-1-yl)phenyl)-2-(2,4,6-trimethylbenzamido)propanoic acid] the IC50 [1] was under 100 nM and the IC50 [3] was under 2000 nM.
In the case of Cc1ccnc(NCC2CCN(c3ccc(CC(NC(=O)c4ccccc4)C(=O)O)cc3)CC2)c1 (centres unmarked) [Compound 262, 2-benzoylamino-3-(4-{4-[(4-methyl-pyridin-2-ylamino)methyl]piperidin-1-yl}phenyl)propionic acid], the IC50 [1] is reported as under 100 nM and the IC50 [3] is reported as 2000 to 20000 nM.
For Cc1ccnc(NCC2CCN(c3ccc(CC(NC(=O)C(c4ccccc4)C(C)C)C(=O)O)cc3)CC2)c1 (centres unmarked) [Compound 266, 2-(3-methyl-2-phenyl-butyrylamino)-3-(4-{4-[(4-methyl-pyridin-2-ylamino)methyl]piperidin-1-yl}phenyl)propionic acid], the IC50 [1] was under 100 nM, the IC50 [2] was over 1000 nM and the IC50 [3] was under 2000 nM.
For CCCNC(=O)NCC1CCN(c2ccc(CC(NC(=O)c3c(C)cc(C)cc3C)C(=O)O)cc2)CC1 (centres unmarked) [Compound 269, 3-(4-{4-[(3-propyl-ureido)methyl]piperidin-1-yl}phenyl)-2-(2,4,6-trimethyl-benzoylamino)propionic acid], the IC50 [1] was under 100 nM, the IC50 [2] was over 1000 nM and the IC50 [3] was over 20000 nM.
